The source of these data is patent publication US20110236431A1, “TREATMENT OF ACUTE MYOCARDIAL INFARCTION (AMI) USING ENCAPSULATED CELLS ENCODING AND SECRETING GLP-1 PEPTIDES OR ANALOGS THEREOF” (BIOCOMPATIBLES UK LTD., priority 2008, published 2011).

The target in series [1] is DPP-IV (Homo sapiens, UniProt P27487). Put plainly: In vitro plasma stability of GLP-1 peptides secreted from human cells. Particulars: cell culture supernatant, human lymphocyte enriched plasma, 37° C., 3 or additionally 6 and 9 hours.
In series [2] the test system is patients with AMI and severe systolic dysfunction. Particulars: GLP-1 infusion added to standard therapy; cited from earlier work.
Series [3] deals with Rin-5F cells. Put plainly: Anti-apoptotic efficacy, cycloheximid-induced apoptosis. The class given is cell-based, rat. Conditions: 24 hours. The protocol:
40.000 Rin-5F cells were seeded per 96 well and cultivated for 2 days in RPMI supplemented with 1% L-Glutamin and 10% fetal calf serum. […] After 24 hours cell viability is quantified using AlamarBlue.

Entries after “also recorded” stand apart in the source; their conditions may differ.

Sequence of DPP-IV (P27487 whole entry, the tested form may be a part): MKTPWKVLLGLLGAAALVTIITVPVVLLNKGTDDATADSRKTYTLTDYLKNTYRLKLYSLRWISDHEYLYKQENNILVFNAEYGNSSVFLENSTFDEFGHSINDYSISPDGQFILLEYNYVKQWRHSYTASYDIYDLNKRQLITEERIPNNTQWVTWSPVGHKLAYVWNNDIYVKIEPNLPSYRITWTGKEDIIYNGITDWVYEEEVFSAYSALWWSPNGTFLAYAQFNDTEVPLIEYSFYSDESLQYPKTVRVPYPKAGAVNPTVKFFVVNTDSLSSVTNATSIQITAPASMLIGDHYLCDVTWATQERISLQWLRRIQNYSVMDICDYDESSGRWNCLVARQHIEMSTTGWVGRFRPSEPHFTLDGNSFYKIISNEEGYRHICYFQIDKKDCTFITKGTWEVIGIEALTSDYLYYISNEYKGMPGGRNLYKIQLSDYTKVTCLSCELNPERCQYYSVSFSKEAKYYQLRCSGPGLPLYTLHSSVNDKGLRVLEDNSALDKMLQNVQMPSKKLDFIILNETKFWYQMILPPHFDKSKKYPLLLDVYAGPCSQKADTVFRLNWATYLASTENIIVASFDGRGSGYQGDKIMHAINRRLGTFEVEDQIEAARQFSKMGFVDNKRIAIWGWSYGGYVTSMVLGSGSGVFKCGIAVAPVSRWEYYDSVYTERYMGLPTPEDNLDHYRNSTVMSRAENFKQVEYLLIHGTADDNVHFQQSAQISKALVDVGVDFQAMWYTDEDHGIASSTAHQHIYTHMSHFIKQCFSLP

Regarding “GLP1(7-37)-IP2-GLP1(7-37) [construct #217]”, in series [1], the “stability to DPP-IV degradation in plasma (active GLP-1 ELISA)” value was “more resistant to degradation; also recorded: nearly fully stabilized to DPP-IV degradation”.

“GLP-1(7-37)-IP2-extended with 11 AA [construct #317]”: in series [1], the “stability to DPP-IV degradation in plasma (active GLP-1 ELISA)” value was “more resistant to degradation”.

As for “Glucagon Like Peptide-1 (HAEGTFTSDVSSYLEGQAAKEFIAWLVKGRG) [GLP-1, naturally occurring incretin, infused in literature studies]”, the “regional and global LV function” value in series [2] was “improved regional and global LV function”. Consider GLP-1(7-37)-IP2-GLP-1(7-37) [CM1], for which, in series [3] (CHX 10 μg/ml and 100 μg/ml, different concentrations of CM1), the cell viability result is “significant (p<0.01) increase of cell viability”. The “anti-apoptotic effect (cell viability, AlamarBlue)” value in series [3] (cycloheximid, serum-free, 1 nM CM1, p<0.01) is recorded as “significant anti-apoptotic effect”.
